Data from patent US5698563A, “Bis-[hydrazones]” (Alteon Inc., priority 1995, dated 1997).
Counter-ions that a name gives are not always drawn.

Tested on: gelatin, i.e., collagen
Assay: Surface browning experiment: gelatin/paper disks in glucose-6-phosphate
Conditions: Peridex at a final concentration of 0.04% chlorhexidine; 100 Mm glucose-6-phosphate, one week at 50° C., pH 7.4
Procedure: To further study the ability of inhibitors of nonenzymatic browning to prevent the discoloration of protein on a surface, such as that which occurs on the tooth surface, the following surface browning experiment is performed. As a substitute for a pellicle-covered tooth surface, unexposed and developed photographic paper is used to provide a fixed protein (gelatin, i.e., collagen) surface on a paper backing. Five millimeter circles are punched and immersed for one week at 50° C. in a solution of 100 Mm glucose-6-phosphate in a 0.5M phosphate buffer, Ph 7.4, containing 3 Mm sodium azide. Glucose-6-phosphate is a sugar capable of participating in nonenzymatic browning at a more rapid rate than glucose. In addition to the glucose-6-phosphate, chlorhexidine and/or a compound of Formula I are included. After incubation, the gelatin/paper disks are rinsed with water, observed for brown color, and photographed.

For `[H]/N=C(\N/C(=N/[H])NCCCCCCNC(=N)NC(=N)Nc1ccc(Cl)cc1)Nc1ccc(Cl)cc1` [chlorhexidine], the “browning of gelatin disks with chlorhexidine” value was “significant browning”.

Tested on: aortic wall protein cross-linking
Assay: not given
Conditions: diabetic rats; cited from earlier work

For `N=C(N)NN` [aminoguanidine], the “aortic wall protein cross-linking” value is given as “diminishes aortic wall protein cross-linking”.

Tested on: cross-linking of glycated bovine serum albumin (AGE-BSA) to the rat tail tendon collagen
Assay: Inhibition of cross-linking of glycated bovine serum albumin (AGE-BSA) to rat tail tendon collagen coated 96-well plate (ELISA)
Assay type: biochemical
Conditions: 4 h, pH 7.4
Procedure: The following method was used to evaluate the ability of the compounds of the present invention to inhibit the cross-linking of glycated bovine serum albumin (AGE-BSA) to the rat tail tendon collagen coated 96-well plate.
The AGE-BSA was prepared by incubating BSA at a concentration of 200 mg per ml with 200 mM glucose in 0.4M sodium phosphate buffer, pH 7.4 at 37° C. for 12 weeks. The glycated BSA was then extensively dialyzed against phosphate buffer solution (PAS) for 48 hours with additional 5 times buffer exchanges. The rat tail tendon collagen coated plate was blocked first with 300 μl of superbloc blocking buffer (Pierce #37515X) for one hour. The blocking solution was removed from the wells by washing the plate twice with PAS-Tween 20 solution (0.05% Tween 20) using a NUNC-multiprobe or Dynatech ELISA-plate washer. Cross-linking of AGE-BSA (1 to 10 μg per well depending on the batch of AGE-BSA) to rat tail tendon collagen coated plate was performed with and without the testing compound dissolved in PAS buffer at pH 7.4 at the desired concentrations by the addition of 50 μl each of the AGE-BSA diluted in PAS or in the testing compound at 37° C. for 4 hours. The unbrowned BSA in PAS buffer with or without testing compound were added to the separate wells as the blanks. The un-cross-linked AGE-BSA was then removed by washing the wells three times with PAS-Tween buffer. The cross-linked AGE-BSA to the tail tendon coated plate was then quantitated by the polyclonal antibody raised against AGE-RNase. After a one-hour incubation period, AGE antibody was removed by washing 4 times with PAS-Tween.
The bound AGE antibody was then detected with the addition of horseradish peroxidase-conjugated secondary antibody, e.g., goat anti-rabbit immunoglobulin and incubation for 30 minutes. The substrate of 2,2-azino-di(3-ethylbenzthiazoline sulfonic acid) (ABTS chromogen) (Zymed #00-2011) was added. The reaction was allowed for an additional 15 minutes and the absorbance was read at 410 nm in a Dynatech plate reader.
The % inhibition of each test compound was calculated as follows.
% inhibition={[Optical density (without compound)-optical density (with
compound)]/optical density (without compound)]}100%
The IC50 relative inhibition by various test compounds at 10 Mm is as follows: […]

`C1CCC(=NNC2=NCCN2)C(=NNC2=NCCN2)C1` [1,2-cyclohexanedione bis(2-hydrazino-2-imidazoline hydrazone)dihydrobromidedihydrate] and `C1CN=C(NN=C2CCCCC2=NNC2=NCCCN2)NC1` [1,2-cyclohexanedione bis(2-tetrahydropyrimidine)hydrazone dihydrobromide] are within 1.5-fold of each other in IC50: 10 µM for the first, 6.7 µM for the second.

`CCc1nnc(NN=CC(C)=NNc2nnc(CC)n2N)n1N` [methyl glyoxal-bis-(4-amino-3-hydrazino-5-ethyl-1,2,4-triazole)hydrazone dihydrochloride] and `CC(C=NNc1nnc(C(C)C)n1N)=NNc1nnc(C(C)C)n1N` [methyl glyoxal-bis-(4-amino-3-hydrazino-5-isopropyl-1,2,4-triazole)hydrazone dihydrochloride] are within 1.5-fold of each other in IC50: 120 µM for the first, 110 µM for the second.

`OCCN1CCCN=C1NN=CC(=NNC1=NCCCN1CCO)c1ccccc1` [phenyl glyoxal bis[1-(2-hydroxyethyl)-2-hydrazino-1,4,5,6-tetrahydropyrimidine hydrazone]dimethanesulfonate dihydrate] and `OCCN1CCN=C1NN=CC(=NNC1=NCCN1CCO)c1ccccc1` [phenyl glyoxal bis[1-(2-hydroxyethyl)-2-hydrazino-2-imidazoline hydrazone]dimethanesulfonate dihydrate] are within error of each other in IC50: 70 ± 100 µM for the first, 90 ± 130 µM for the second.

Going from `CC(C=NNC1=NCCN1)=NNC1=NCCN1` [methyl glyoxal bis(2-hydrazino-2-imidazoline hydrazone) dihydrobromide] to `CC(C=NNC1=NCCCN1)=NNC1=NCCCN1` [methyl glyoxal bis(2-hydrazino-1,4,5,6-tetrahydropyrimidine hydrazone)dihydrobromide], the IC50 falls from 2040 ± 50 µM to 840 ± 120 µM (2.4-fold).

Going from `C1CNC(NN=C2CCC(=NNC3=NCCN3)CC2)=N1` [1,4-cyclohexane dione bis(2-hydrazino-2-imidazoline hydrazone]dihydrobromide dihydrate] to `C1=CC(=NNC2=NCCN2)C=CC1=NNC1=NCCN1` [1,4-benzoquinone bis(2-hydrazino-2-imidazoline hydrazone) dihydrobromide], the IC50 falls from 100 µM to 20 µM (5-fold). The second is the more potent here.

`CC(C=NNC1=NCCN1CCO)=NNC1=NCCN1CCO` [methyl glyoxal bis[1-(2-hydroxyethyl)-2-hydrazino-2-imidazoline hydrazone]dimethanesulfonate] and `CC(C=NNC1=NCCCN1CCO)=NNC1=NCCCN1CCO` [methyl glyoxal bis[1-(2-hydroxyethyl)-2-hydrazino-1,4,5,6-tetrahydropyrimidine hydrazone]dimethanesulfonate] are within error of each other in IC50: 320 ± 70 µM for the first, 170 ± 110 µM for the second.

Going from `CC(C=NNC(=N)NCC(C)(C)CN(C)C)=NNC(=N)NCC(C)(C)CN(C)C` [methyl glyoxal bis[N-(2,2-dimethyl-3-dimethylaminopropyl)hydrazinecarboximidamide hydrazone]tetrahydrobromide] to `CC(C=NNC(=N)NCCCN(C)C)=NNC(=N)NCCCN(C)C` [methyl glyoxal bis[N-3-dimethylaminopropyl)hydrazinecarboximidamide hydrazone]tetrahydrobromide], the IC50 falls from 440 ± 60 µM to 220 ± 50 µM (2-fold).

First: OCCN1CCCN=C1NN=CC(=NNC1=NCCCN1CCO)c1ccco1 [furyl glyoxal bis[1-(2-hydroxyethyl)-2-hydrazino-1,4,5,6-tetrahydropyrimidine hydrazone]dimethanesulfonate dihydrate]
Second: OCCN1CCN=C1NN=CC(=NNC1=NCCN1CCO)c1ccco1 [furyl glyoxal bis[1-(2-hydroxyethyl)-2-hydrazino-2-imidazoline hydrazone]dimethanesulfonate monohydrate]
The IC50 of the first is 46-fold lower: 20 µM for the first, 920 ± 260 µM for the second.

First: CC(=NNC1=NCCCN1)C(C)=NNC1=NCCCN1 [2,3-butanedione bis(2-tetrahydropyrimidine)hydrazone dihydrobromide]
Second: CCCC(=NNC1=NCCCN1)C(C)=NNC1=NCCCN1 [2,3-hexanedione bis(2-tetrahydropyrimidine)hydrazone dihydrobromide]
The IC50 of the first is 8-fold lower: 4.1 µM for the first, 33 µM for the second.

`N=C(N)NN=CC(=NNC(=N)N)c1ccco1` [furyl glyoxal bis (guanyl hydrazone)dihydrochloride dihydrate] and `N=C(N)NN=CC(=NNC(=N)N)c1ccccc1` [phenyl glyoxal bis(guanylhydrazone)dihydrochloride] are within error of each other in IC50: 310 µM for the first, 340 ± 190 µM for the second.

Going from `CC(C=NNC(=N)NCCN1CCOCC1)=NNC(=N)NCCN1CCOCC1` [methylglyoxal bis{N-[2-(4-morpholino)ethyl]hydrazinecarboximidamide hydrazone}tetrahydrobromide] to `CC(CC(C)=NNC1=NCCN1)=NNC1=NCCN1` [2,4-pentanedione bis(2-hydrazino-2-imidazoline hydrazone)dihydrobromide], the IC50 falls from 2200 ± 130 µM to 40 µM (55-fold). The second is the more potent here.

`C(=NNC1=NCCN1)C(=NNC1=NCCN1)c1ccco1` [furyl glyoxal bis(2-hydrazino-2-imidazoline hydrazone) dihydrobromide dihydrate] and `c1coc(C(=NNC2=NCCN2)C(=NNC2=NCCN2)c2ccco2)c1` [furyl bis (2-hydrazino-2-imidazoline hydrazone) dihydrobromide] are within error of each other in IC50: 120 ± 100 µM for the first, 20 µM for the second.

Going from `C(=NNC1=NCCN1)c1ccccc1C=NNC1=NCCN1` [o-phthalicdicarboxaldehyde bis(2-hydrazino-2-imidazoline hydrazone)dihydrobromide monohydrate] to `C(=NNC1=NCCN1)c1cc2ccccc2cc1C=NNC1=NCCN1` [2,3-naphthalene dialdehyde bis(2-hydrazino-2-imidazoline hydrazone)dihydrobromide dihydrate], the IC50 falls from 430 ± 80 µM to 30 µM (14-fold). The second is the more potent here.

Tested on: red blood cells
Assay: not given
Conditions: in vivo, diabetic rabbits; 100 mg/kg by oral gavage; cited from earlier work

In the case of `N=C(N)NN` [aminoguanidine], the “diabetes-induced changes in the deformability of red blood cells” value is given as “has been shown to prevent it in vivo”.

Tested on: Maillard reaction
Assay: not given
Conditions: Nordbo, J. Dent. Res., 1979; cited from earlier work

In the case of `[H]/N=C(\N/C(=N/[H])NCCCCCCNC(=N)NC(=N)Nc1ccc(Cl)cc1)Nc1ccc(Cl)cc1` [chlorhexidine], the “catalysis of browning reactions in vitro” value is given as “catalyze browning reactions in vitro”.
In the case of benzalkonium chloride, the “catalysis of browning reactions in vitro” value is given as “catalyze browning reactions in vitro”.

Same assay, conditions: attributed to the Maillard reaction; cited from earlier work

In the case of `[H]/N=C(\N/C(=N/[H])NCCCCCCNC(=N)NC(=N)Nc1ccc(Cl)cc1)Nc1ccc(Cl)cc1` [chlorhexidine], the “color formation in mixtures containing a sugar derivative and a source of amino groups” value is listed as “increased color formation”.

Tested on: glomerular basement membrane
Assay: not given
Conditions: streptozotocin-diabetic rat; Brownlee et al., 1988; cited from earlier work

For `N=C(N)NN` [aminoguanidine], the “intervention in the development of diabetic nephropathy” value is listed as “intervenes in the development of diabetic nephropathy”.

Tested on: RNAase
Assay: not given
Conditions: free lysine; Eble et al., 1983; cited from earlier work

In the case of `NCCCC[C@H](N)C(=O)O` [lysine], the “competition with lysine on RNAase for binding of glycosylated protein” value is given as “would compete with the lysine on RNAase for the binding of glycosylated protein”.

Tested on: immunoglobulin trapping in the kidney
Assay: not given
Conditions: Brownlee et al., Diabetes 1986; cited from earlier work

In the case of `N=C(N)NN` [aminoguanidine], the “immunoglobulin trapping in the kidney” value is given as “reduction of immunoglobulin trapping in the kidney”.

Tested on: dental pellicle
Assay: not given
Conditions: use of chlorhexidine; cited from earlier work

For `[H]/N=C(\N/C(=N/[H])NCCCCCCNC(=N)NC(=N)Nc1ccc(Cl)cc1)Nc1ccc(Cl)cc1` [chlorhexidine], the dental pellicle is given as “increased dental pellicle”.
